# According to US20250034139A1, “AMINE COMPOUNDS HAVING ANTI-INFLAMMATORY, ANTIFUNGAL, ANTIPARASITIC, AND ANTICANCER ACTIVITY” (PHARMA CINQ, LLC, priority 2013, published 2025):
# Key:
# THP-1 cells = experiment: Example D: LPS-triggered THP-1 cell death assay, acute/5-hour and chronic/48-hour; assay type: cell-based, Human; settings: for Viable cell percent change, Chronic/48-hour, Mean: 10 ng/ml LPS, 0.1 μM test compound
# Description: Compounds of the invention were tested at 0.1 μM versus AC in the LPS-triggered THP-1 cell death assay. Both acute/5-hour and chronic/48-hour phases of cell death were assessed. Compounds were screened in batches with DMSO as the negative control and AC as the high activity control.
# [1] = test system: 4T1 murine breast cancer cells; experiment: Example S: in vitro anticancer screen, 4T1 cells, Wst1; assay type: cell-based, mouse; settings: Mus musculus, 4T1, 18 h, 18 hr, Wst1; for viability at 1 µM: read-out: 4T1 1 μM, percent of cancer cell survival relative to vehicle treated cells; for viability at 5 µM: read-out: 4T1 5 μM, percent of cancer cell survival relative to vehicle treated cells
# In short: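 4T1 cells seeded at 1×10^4/well were exposed to compound at 1 μM or 5 μM for 18 hr after plating. Wst1 tetrazolium dye was then added for about 2 hr and absorbance read at 450 nm (reference 630 nm). Values are percent survival relative to vehicle-treated cells.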
# [2] = test system: PC3 human prostate cancer cells; experiment: Example S: in vitro anticancer screen, PC-3 cells, Wst1; assay type: cell-based; settings: Homo sapiens, PC-3, approximately 20 hours, Wst1, read-out: PC-3, percent of cancer cell survival relative to vehicle treated cells
# In short: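 PC-3 cells, 2×10^4 cells/well, exposed ~20 h to vehicle or compound at 0.4, 0.5 or 2.5 μM as specified per compound. Wst1 dye added for 2 h; absorbance 450 nm (reference 630 nm), triplicates. Values are percent cell survival versus vehicle-treated cells.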
# [3] = test system: PC-3 prostate cancer cells; experiment: Example T: sensitisation of PC-3 cells to doxorubicin, oxaliplatin, paclitaxel or vincristine, Wst1; assay type: cell-based, human; settings: PC-3 cells, 72 hours; for viability at 0.4 µM / viability at 2.5 µM / viability at 1.5 µM / viability at 0.5 µM: Homo sapiens, Wst1, vehicle = 100, read-out: No Chemo: percent cell survival; for viability at 0.4 µM: compound 0.4 μM alone; for Doxorubicin 3.5 μM: percent cell survival / Oxaliplatin 100 μM: percent cell survival / Paclitaxel 50 μM: percent cell survival / Vincristine 100 nM: percent cell survival: chemotherapy agent alone normalized to 100%; for viability at 2.5 µM: compound 2.5 μM alone; for viability at 1.5 µM: compound 1.5 μM alone; for viability at 0.5 µM: compound 0.5 μM alone
# [4] = compound 0.4 μM + doxorubicin 3.5 μM
# [5] = compound 0.4 μM + oxaliplatin 100 μM
# [6] = compound 0.4 μM + paclitaxel 50 μM
# [7] = compound 0.4 μM + vincristine 100 nM
# [8] = compound 2.5 μM + doxorubicin 3.5 μM
# [9] = compound 2.5 μM + oxaliplatin 100 μM
# [10] = compound 2.5 μM + paclitaxel 50 μM
# [11] = compound 2.5 μM + vincristine 100 nM
# [12] = compound 1.5 μM + doxorubicin 3.5 μM
# [13] = compound 1.5 μM + oxaliplatin 100 μM
# [14] = compound 1.5 μM + paclitaxel 50 μM
# [15] = compound 1.5 μM + vincristine 100 nM
# [16] = compound 0.5 μM + doxorubicin 3.5 μM
# [17] = compound 0.5 μM + oxaliplatin 100 μM
# [18] = compound 0.5 μM + paclitaxel 50 μM
# [19] = compound 0.5 μM + vincristine 100 nM
structure (smiles),measurement,setting,value
"O=C(NCCCCCCCCNc1ccnc2ccccc12)c1ccncc1 [EG, N-[8-(Quinolin-4-ylamino)octyl]isonicotinamide]","Viable cell percent change, Chronic/48-hour, Mean",THP-1 cells,60.59%
same,viability at 1 µM,[1],34.7%
same,viability at 5 µM,[1],27.7%
same,viability at 0.4 µM,[2],92.2%
same,viability at 0.4 µM,[3],92.2%
same,Doxorubicin 3.5 μM: percent cell survival,[3]; [4],91.3%
same,Oxaliplatin 100 μM: percent cell survival,[3]; [5],96.2%
same,Paclitaxel 50 μM: percent cell survival,[3]; [6],95.3%
same,Vincristine 100 nM: percent cell survival,[3]; [7],88.5%
"CCCCCCNc1ccnc2ccccc12 [EI, N-Hexylquinolin-4-amine]","Viable cell percent change, Chronic/48-hour, Mean",THP-1 cells,39.53%
same,viability at 1 µM,[1],95%
same,viability at 5 µM,[1],45.8%
same,viability at 2.5 µM,[2],31.2%
same,viability at 2.5 µM,[3],31.2%
same,Doxorubicin 3.5 μM: percent cell survival,[3]; [8],66.1%
same,Oxaliplatin 100 μM: percent cell survival,[3]; [9],75.1%
same,Paclitaxel 50 μM: percent cell survival,[3]; [10],50.1%
same,Vincristine 100 nM: percent cell survival,[3]; [11],69.5%
"CCCCCCOCCCCCCCCNc1ncnc2ccccc12 [EW, N-[8-(Hexyloxy)octyl]quinazolin-4-amine]","activity relative to AC in the LPS-triggered THP-1 cell death assay, in words","THP-1 cells; 0.1 μM, 5-hour and 48-hour time points",equivalent activity to AC at both the 5-hour and 48-hour time points
same,viability at 1 µM,[1],21.2%
same,viability at 5 µM,[1],18.9%
same,viability at 0.4 µM,[2],14.1%
same,viability at 0.4 µM,[3],14.1%
same,Doxorubicin 3.5 μM: percent cell survival,[3]; [4],20%
same,Oxaliplatin 100 μM: percent cell survival,[3]; [5],16.6%
same,Paclitaxel 50 μM: percent cell survival,[3]; [6],21.9%
same,Vincristine 100 nM: percent cell survival,[3]; [7],14.8%
"CCCCCCCCCCCCOCCn1cnc2cnc3ccccc3c21 [FG, 1-[2-(Dodecyloxy)ethyl]-1H-imidazo[4,5-c]quinoline]","Viable cell percent change, Chronic/48-hour, Mean",THP-1 cells,1.15%
same,viability at 1 µM,[1],85.7%
same,viability at 5 µM,[1],25.5%
same,viability at 1.5 µM,[2],39.2%
same,viability at 1.5 µM,[3],39.2%
same,Doxorubicin 3.5 μM: percent cell survival,[3]; [12],65.7%
same,Oxaliplatin 100 μM: percent cell survival,[3]; [13],85.5%
same,Paclitaxel 50 μM: percent cell survival,[3]; [14],47.2%
same,Vincristine 100 nM: percent cell survival,[3]; [15],41%
"CCCCCCCCOCCCCCCn1cnc2cnc3ccccc3c21 [FI, 1-[6-(Octyloxy)hexyl]-1H-imidazo[4,5-c]quinoline]","Viable cell percent change, Chronic/48-hour, Mean",THP-1 cells,12.70%
same,viability at 1 µM,[1],26.5%
same,viability at 5 µM,[1],26.7%
same,viability at 0.5 µM,[2],35.2%
same,viability at 0.5 µM,[3],35.2%
same,Doxorubicin 3.5 μM: percent cell survival,[3]; [16],79.8%
same,Oxaliplatin 100 μM: percent cell survival,[3]; [17],91.4%
same,Paclitaxel 50 μM: percent cell survival,[3]; [18],84%
same,Vincristine 100 nM: percent cell survival,[3]; [19],73.7%
"CCCCCCOCCCCCCCCCn1cnc2cnc3ccccc3c21 [FJ, 1-[9-(Hexyloxy)nonyl]-1H-imidazo[4,5-c]quinoline]","Viable cell percent change, Chronic/48-hour, Mean",THP-1 cells,27.44%
same,viability at 1 µM,[1],38.1%
same,viability at 5 µM,[1],24.5%
same,viability at 0.5 µM,[2],38.6%
same,viability at 0.5 µM,[3],38.6%
same,Doxorubicin 3.5 μM: percent cell survival,[3]; [16],75.1%
same,Oxaliplatin 100 μM: percent cell survival,[3]; [17],93%
same,Paclitaxel 50 μM: percent cell survival,[3]; [18],97.3%
same,Vincristine 100 nM: percent cell survival,[3]; [19],82.2%
"CCCCOCCCCCCCCCCn1cnc2cnc3ccccc3c21 [FK, 1-(10-Butoxydecyl)-1H-imidazo[4,5-c]quinoline]","Viable cell percent change, Chronic/48-hour, Mean",THP-1 cells,16.57%
same,viability at 1 µM,[1],23.6%
same,viability at 5 µM,[1],15.6%
same,viability at 0.5 µM,[2],35.5%
same,viability at 0.5 µM,[3],35.5%
same,Doxorubicin 3.5 μM: percent cell survival,[3]; [16],47.4%
same,Oxaliplatin 100 μM: percent cell survival,[3]; [17],62%
same,Paclitaxel 50 μM: percent cell survival,[3]; [18],18%
same,Vincristine 100 nM: percent cell survival,[3]; [19],39%
"COCCCCCCCCNc1cc[n+](C)cc1.[I-] [FL, 4-(8-Methoxyoctylamino)-1-methylpyridinium iodide]","Viable cell percent change, Chronic/48-hour, Mean",THP-1 cells,38.59%
same,viability at 1 µM,[1],27.7%
same,viability at 5 µM,[1],21.4%
same,viability at 0.4 µM,[2],41.2%
same,viability at 0.4 µM,[3],41.2%
same,Doxorubicin 3.5 μM: percent cell survival,[3]; [4],81.3%
same,Oxaliplatin 100 μM: percent cell survival,[3]; [5],87.9%
same,Paclitaxel 50 μM: percent cell survival,[3]; [6],92.8%
same,Vincristine 100 nM: percent cell survival,[3]; [7],69.7%
"CCCCCCOCCCCCCCCNc1cccc2cnccc12 [FT, N-[8-(Hexyloxy)octyl]isoquinolin-5-amine]","Viable cell percent change, Chronic/48-hour, Mean",THP-1 cells,3.59%
same,viability at 1 µM,[1],113%
same,viability at 5 µM,[1],27.6%
same,viability at 2.5 µM,[2],41.1%
same,viability at 2.5 µM,[3],41.1%
same,Doxorubicin 3.5 μM: percent cell survival,[3]; [8],74.4%
same,Oxaliplatin 100 μM: percent cell survival,[3]; [9],94.2%
same,Paclitaxel 50 μM: percent cell survival,[3]; [10],85.2%
same,Vincristine 100 nM: percent cell survival,[3]; [11],78.3%
"CCCCCCCCCCOCCCCn1cnc2cnc3ccccc3c21 [GA, 1-[4-(Decyloxy)butyl]-1H-imidazo[4,5-c]quinoline]","Viable cell percent change, Chronic/48-hour, Mean",THP-1 cells,16.51%
same,viability at 1 µM,[1],97.1%
same,viability at 5 µM,[1],35.5%
same,viability at 1.5 µM,[2],41.3%
same,viability at 1.5 µM,[3],41.3%
same,Doxorubicin 3.5 μM: percent cell survival,[3]; [12],82.2%
same,Oxaliplatin 100 μM: percent cell survival,[3]; [13],91.8%
same,Paclitaxel 50 μM: percent cell survival,[3]; [14],109.2%
same,Vincristine 100 nM: percent cell survival,[3]; [15],84.2%
"CCCCCCOCCCCCCCCn1cnc2cnc3ccccc3c21 [GB, 1-[8-(Hexyloxy)octyl]-1H-imidazo[4,5-c]quinoline]","Viable cell percent change, Chronic/48-hour, Mean",THP-1 cells,19.29%
same,viability at 1 µM,[1],97%
same,viability at 5 µM,[1],22.6%
same,viability at 1.5 µM,[2],36.4%
same,viability at 1.5 µM,[3],36.4%
same,Doxorubicin 3.5 μM: percent cell survival,[3]; [12],52.8%
same,Oxaliplatin 100 μM: percent cell survival,[3]; [13],76.2%
same,Paclitaxel 50 μM: percent cell survival,[3]; [14],24%
same,Vincristine 100 nM: percent cell survival,[3]; [15],38.8%
"CCCCCCOCCCOCCCCCn1cnc2cnc3ccccc3c21 [GC, 1-{5-[3-(Hexyloxy)propoxy]pentyl}-1H-imidazo[4,5-c]quinoline]","Viable cell percent change, Chronic/48-hour, Mean",THP-1 cells,19.30%
same,viability at 1 µM,[1],84.8%
same,viability at 5 µM,[1],21.1%
same,viability at 2.5 µM,[2],19.8%
same,viability at 2.5 µM,[3],19.8%
same,Doxorubicin 3.5 μM: percent cell survival,[3]; [8],59.5%
same,Oxaliplatin 100 μM: percent cell survival,[3]; [9],63.2%
same,Paclitaxel 50 μM: percent cell survival,[3]; [10],30.3%
same,Vincristine 100 nM: percent cell survival,[3]; [11],26.4%
